From patent US11642413B2, “Compounds for degrading Tau protein aggregates and uses thereof” (Aprinoia Therapeutics Limited, priority 2019, dated 2023) come the findings set out here.

In data set [1] the target is heparin-induced aggregated Tau (aTau) (Homo sapiens (Human), UniProt P10636). The experiment in a line: PBB5 competition assay. Format: binding. The settings on record: for Bmax: competition assay with PBB5; for IC50: 0.12 μM aTau, 0.1 μM PBB5, 37° C., 1 hour. As to the method:
1 mM IPTG (Sangon Biotech, Cat. No A100487) was used to induce production of tau by bacteria (BL21, Invitrogen, Cat. No C600003) transformed with a full-length 2N4R tau expression plasmid. After 3 hours, cell pellet was resuspended in lysis buffer (100 mM PIPES, 1 mM EGTA, 1 mM MgSO4, pH 6.8) and lysed by sonication followed by centrifugation (15,000 rpm, 15 min, 4° C.). The supernatant was then placed in a boiling water bath for 20 min, followed by centrifugation (15,000 rpm, 15 min, 4° C.). Supernatant was loaded onto a Q-Sepharose® Fast Flow column (GE healthcare, Cat. No 17-0510-01), the flow-through fraction was loaded onto an SP-Sepharose® Fast Flow column (GE healthcare, Cat. No 17-0729-01), and tau protein was eluted with elution buffer (100 mM PIPES, 1 M NaCl, 1 mM EGTA, 1 mM MgSO4, 0.2 M NaCl, pH 6.8). Collected fractions of tau-containing eluates were pooled, concentrated and dialyzed against HEPES buffer (25 mM HEPES, 0.1 mM EDTA, 0.5 mM DTT, 100 mM NaCl, pH 7.2) and stored at −80° C. in small aliquots until use. Protein concentration was determined by UV absorption.
2 μM of tau prepared in 30 mM Tris-HCl, pH 7.5 buffer was incubated in tube with 15 μM heparin (Sigma, Cat. No H3149) at 37° C. for 24 hours.
2 μM of aTau was diluted to 0.12 μM by […] (pH 6.8) and then incubated with 0.1 μM 2-(4-(2-(methylamino)pyridine-5-yl)-1,3-butadiene-1-yl)benzothiazole-6-ol (PBB5) and serially diluted compound (three-fold serial dilution, from 10 to 0.00017 μM) in a 96-well plate (Corning, Cat. No 3573) at 37° C. for 1 hour. Fluorescence intensity (excitation/emission=530/690 nm) of PBB5 was read by microplate spectrometer (EnSpire 2300, PerkinElmer). Percentage of competition was calculated using the following equation: (Max−well of compound alone)/(Max−Min)*100%, where Max=(Tau+PBB5) signals−(buffer+PBB5) signals; and Min=(buffer+PBB5) signals−(buffer+PBB5) signals.
The IC50 value of each compound was calculated with GraphPad Prism software using the “4 Parameter Logistic Model or Sigmoidal Dose-Response Model”: Y=Bottom+(Top−Bottom)/(1+(IC50/X)^HillSlope)

In data set [2] the target is heparin-induced aggregated Tau (aTau), full-length 2N4R tau (Homo sapiens (Human), UniProt P10636). The experiment in a line: In vitro fluorometric aTau binding assay. Particulars: 0.04 μM aTau, 37° C., 1 hour, fluorescence intensity. As to the method: 1 mM IPTG (Sangon Biotech, Cat. No A100487) was used to induce production of tau by bacteria (BL21, Invitrogen, Cat. No C600003) transformed with a full-length 2N4R tau expression plasmid. After 3 hours, cell pellet was resuspended in lysis buffer (100 mM PIPES, 1 mM EGTA, 1 mM MgSO4, pH 6.8) and lysed by sonication followed by centrifugation (15,000 rpm, 15 min, 4° C.). The supernatant was then placed in a boiling water bath for 20 min, followed by centrifugation (15,000 rpm, 15 min, 4° C.). […] Protein concentration was determined by UV absorption. […]
2 μM aTau was diluted to 0.04 μM with 30 mM Tris-HCl (pH 6.8), and then incubated with serially diluted compound (three-fold serial dilutions, from 10 to 0.00017 μM) in a 96-well plate (Corning, Cat. No 3573) at 37° C. for 1 hour. Fluorescence intensity (excitation/emission=370/500 nm) of APN-0729 was read by microplate spectrometer (EnSpire 2300, PerkinElmer). Compound Kd values were calculated using the following equation: Y=Bmax*X/(Kd+X), where X is the concentration of compound; Y is the fluorescence signal of (compound+aTau)−(compound+DMSO); and Bmax is the maximum signal.

A short description of data set [3]: In vivo pharmacokinetic study of plasma and brain tissue. Particulars: mice, 1 mg/kg, intravenous. As to the method: To determine whether the compounds of the present disclosure are capable of crossing the blood brain barrier (BBB), example compound 160313 was administered to mice in a pharmacokinetic study (1 mg/kg, intravenous) of plasma and brain tissue.
Animal Husbandry: Mice were housed at animal room environment with ventilation 15 times/hour, lighting 12 hours/day, temperature 20° C. to 24° C. and humidity 40% to 70%. The study rooms were disinfected and cleaned prior to the start of the study and the operation area was cleaned after each dosing or sampling during the study conduct. All animals had free access to food and water during the study. The animals had access to Certified Rodent Diet and water ad libitum. The nutritional composition and levels of contaminants of the diet and impurities and contaminants of the water were monitored by third organization. The health status of the animals was evaluated in accordance with accepted animal husbandry procedures and deemed suitable for experimental use.
Sample Collection & Processing: Approximately 110 μL of whole blood were collected from all animals via facial or cardiac puncture under anesthesia with Isoflurane into test tubes containing potassium ethylenediaminetetraacetate (K2EDTA) at 0.25, 0.5, 1, 2, 4, 8 and 24 hr post dose. Brian samples were collected at 0.25, 0.5, 1, 2, 4, 8 and 24 hours post dose. A perfusion with pre-cold saline will be conducted via cardiac puncture before brain collection. Blood samples were centrifuged at 2000 g at 4° C. for 5 minutes to obtain plasma samples by transferring the supernatants into new tubes. All plasma and brain samples were stored at approximately −70° C. until analysis.
Bioanalytical Method Development: The concentrations of compound in plasma and brain samples were determined using a liquid chromatography with tandem mass spectrometry (LC-MS/MS) based method.

heparin-induced aggregated Tau (aTau), sequence (P10636 other isoform, or with tags, fused parts or gaps): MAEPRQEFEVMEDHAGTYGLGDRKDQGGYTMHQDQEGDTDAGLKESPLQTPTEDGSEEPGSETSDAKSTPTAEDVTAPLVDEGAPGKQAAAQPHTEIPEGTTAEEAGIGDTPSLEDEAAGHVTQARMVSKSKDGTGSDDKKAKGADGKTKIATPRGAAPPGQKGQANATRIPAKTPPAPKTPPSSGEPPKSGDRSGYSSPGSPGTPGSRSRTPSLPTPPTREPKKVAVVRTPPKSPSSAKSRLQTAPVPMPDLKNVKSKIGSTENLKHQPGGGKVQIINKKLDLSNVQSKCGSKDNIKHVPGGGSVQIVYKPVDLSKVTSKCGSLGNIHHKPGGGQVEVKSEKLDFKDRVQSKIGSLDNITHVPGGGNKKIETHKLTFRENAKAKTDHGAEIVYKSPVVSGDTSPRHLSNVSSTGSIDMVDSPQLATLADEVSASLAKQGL
heparin-induced aggregated Tau (aTau), full-length 2N4R tau, sequence (P10636 other isoform, or with tags, fused parts or gaps): as above

As for `CN(C)c1ccc(-c2ccc(-c3nc4ccc(NCCOCCOc5ccc6c(c5)C(=O)N(C5CCC(=O)NC5=O)C6=O)cc4s3)cc2)cn1` (stereo not drawn) [Compound 160219, 2-[2,6-bis(oxo)piperidin-3-yl]-5-[2-[2-[[2-[4-[6-(dimethylamino)pyridin-3-yl]phenyl]-1,3-benzothiazol-6-yl]amino]ethoxy]ethoxy]isoindole-1,3-dione], the Bmax in data set [1] came out at 69%.
Molecule `CN(C)c1ccc(-c2ccc(-c3cn4cc(OCCOCCOCCOCCOCCOCCOc5ccc6c(c5)C(=O)N(C5CCC(=O)NC5=O)C6=O)ccc4n3)cc2)c(F)n1` (stereo not drawn) [Compound 160744, 2-[2,6-bis(oxo)piperidin-3-yl]-5-[2-[2-[2-[2-[2-[2-[2-[4-[6-(dimethyl-amino)-2-fluoro-pyridin-3-yl]phenyl]imidazo[1,2-a]pyridin-6-yl]oxyethoxy]ethoxy]ethoxy]-ethoxy]ethoxy]ethoxy]isoindole-1,3-dione] gave a Bmax in data set [1] of 113%.
In turn, `CN(C)c1ccc(-c2ccc(-c3nc4ccc(NCCOCCOCCOCCOCCOCCOc5ccc6c(c5)CN(C5CCC(=O)NC5=O)C6=O)cc4s3)cc2)cn1` (stereo not drawn) [Compound 160273, 3-[6-[2-[2-[2-[2-[2-[2-[[2-[4-[6-(dimethylamino)pyridin-3-yl]phenyl]-1,3-benzothiazol-6-yl]-amino]ethoxy]ethoxy]ethoxy]ethoxy]-ethoxy]ethoxy]-3-oxo-1H-isoindol-2-yl]piperidine-2,6-dione] registered a Bmax in data set [1] of 59%.
Same read-out and setting: with `CN(C)c1ccc(-c2ccc(-c3nc4ccc(NCCOCCOCCOCCOCCOCCOc5ccc6c(c5)C(=O)N(C5CCC(=O)NC5=O)C6=O)cc4s3)cc2)cn1` (stereo not drawn) [Compound 159985, 2-[2,6-bis(oxo)piperidin-3-yl]-5-[2-[2-[2-[2-[2-[2-[[2-[4-[6-(dimethylamino)-pyridin-3-yl]phenyl]-1,3-benzothiazol-6-yl]amino]ethoxy]ethoxy]ethoxy]ethoxy]ethoxy]-ethoxy]isoindole-1,3-dione] the figure was 71%.
Broadly, the Kd is the free concentration of one partner at which half of the binding sites on the other are occupied at equilibrium, for simple one-to-one binding. As usually defined, the IC50 is the concentration that inhibits the measured activity by half. Read a low IC50 as inhibition by little substance. For the molecule `CN(C)c1ccc(-c2ccc(-c3cn4cc(OCCOCCN5C(=O)CCC(N6C(=O)c7ccc(O)cc7C6=O)C5=O)ccc4n3)cc2)c(F)n1` (stereo not drawn) [Compound 160570], in data set [2], binding was put at a Kd of 360 nM. For the same molecule, in data set [1], the IC50 was determined as 2260 nM and the Bmax result is listed as “=100%”.
In data set [1], `CN(C)c1ccc2nc(-c3ccc(-c4ccc(NCCOCCOCCOCCOCCOCCOc5ccc6c(c5)CN(C5CCC(=O)NC5=O)C6=O)nc4)cc3)sc2c1` (stereo not drawn) [Compound 160383, 3-[6-[2-[2-[2-[2-[2-[2-[[5-[4-[6-(dimethylamino)-1,3-benzothiazol-2-yl]-phenyl]pyridin-2-yl]amino]ethoxy]ethoxy]ethoxy]ethoxy]-ethoxy]ethoxy]-3-oxo-1H-isoindol-2-yl]piperidine-2,6-dione] had a Bmax of 80%.
As usually defined, the AUC(0-t) is the area under the concentration-time curve up to a stated or last time point. For orientation: Cmax means the peak of the concentration-time curve. In general, Tmax refers to the time at which the peak concentration occurs. One may read the half-life as the time needed for the level to fall by half in the phase considered. A high value points to slow loss. `CN(C)c1ccc(-c2ccc(-c3nc4ccc(NCCOCCOc5ccc6c(c5)CN(C5CCC(=O)NC5=O)C6=O)cc4s3)cc2)cn1` (stereo not drawn) [Compound 160313, 3-[6-[2-[2-[[2-[4-[6-(dimethylamino)pyridin-3-yl]phenyl]-1,3-benzothiazol-6-yl]amino]ethoxy]ethoxy]-3-oxo-1H-isoindol-2-yl]piperidine-2,6-dione] had a Bmax in data set [1] of 64%. Moreover, the BBB penetration entry in data set [3] was “able to penetrate BBB in short period of time”. Also, the Kp in data set [3] (mouse, brain/plasma, read-out: brain/plasma ratio) is ~0.31. Further, in data set [3] (mouse, Brain), the AUC(0-t) was 117 ng·h/mL, the Cmax amounted to 111 ng/mL, the Tmax came out at 15 min and the half-life was 61.8 min. Moreover, in data set [3] (mouse, Plasma), the AUC(0-t) worked out at 379 ng·h/mL and the half-life is 27.6 min.
`CN(C)c1ccc2nc(-c3ccc(-c4ccc(NCCOCCN5C(=O)CCC(N6C(=O)c7ccc(O)cc7C6=O)C5=O)nc4)cc3)sc2c1` (stereo not drawn) [Compound 160703] returned a Kd in data set [2] of 100 nM. Also, in data set [1], the IC50 was determined as 1000 nM and the Bmax result is given as “=100%”.
`CN(C)c1ccc2nc(-c3ccc(-c4ccc(NCCOCCOCCOCCOCCOCCOc5ccc6c(c5)C(=O)N(C5CCC(=O)NC5=O)C6=O)nc4)cc3)sc2c1` (stereo not drawn) [Compound 160275, 2-[2,6-bis(oxo)piperidin-3-yl]-5-[2-[2-[2-[2-[2-[2-[[5-[4-[6-(dimethylamino)-1,3-benzothiazol-2-yl]phenyl]pyridin-2-yl]amino]ethoxy]ethoxy]-ethoxy]ethoxy]ethoxy]ethoxy]isoindole-1,3-dione]: in data set [1], the Bmax is recorded as 96%.
